From patent publication US5631248A, “Supersaturated topical compositions” (priority 1992, dated 1997)

Experiment: Saturated concentration of hydrocortisone acetate in propylene glycol
Type: physicochemical
Details: saturated solution in propylene glycol (Sample A)

CC(=O)OCC(=O)[C@@]1(O)CC[C@H]2[C@@H]3CCC4=CC(=O)CC[C@]4(C)[C@H]3[C@@H](O)C[C@@]21C [hydrocortisone acetate]
concentration of saturated solution in propylene glycol: 0.10 % w/w
